Read-outs that look alike come from different tables or passages of the source.
How the values were obtained:
[1] = system: neuronal and glial GABA uptake systems in the CNS; details: neuronal and glial uptake systems, literature; read-out: IC50, high-affinity GABA uptake in the CNS; cited from earlier work
[2] = system: GABA transporter (L-GAB1 cells); assay: [3H]GABA uptake by L-GAB1 cells; format: cell-based, human; details: for inhibition of total [3H]GABA uptake by L-GAB1 cells: effect saturating by 100 μM; for effect of GABA uptake inhibitors on [3H]GABA uptake by L-GAB1 cells: inhibitor 1 to 100 μM; for ligand-specificity of [3H]GABA uptake by L-GAB1 cells: competitor at 100-fold excess relative to [3H]GABA
Description: Using concentrations of [^3 H] GABA ranging from 2 to 500 μM, the kinetic profile of GABA uptake was determined for both L-GAB1 and L-M cells. The initial velocity of GABA uptake was measured and plotted against the corresponding [^3 H] GABA concentration for both cell lines. […] The velocity profile for L-GAB1 cells was subtracted by that of L-M cells, and the resulting data used for a double-reciprocal plot of velocity-^1 against GABA concentration-^1. The velocity profile for L-M cells was also transformed into a double-reciprocal plot.
Several known inhibitors of high-affinity GABA uptake were used to examine their efficacies in inhibiting [^3 H] GABA uptake by L-GAB1 cells. […] Each of these agents was used at several concentrations ranging from 1 to 100 μM in assays of [^3 H] GABA uptake by L-GAB1 cells. […] GABA uptake by L-GAB1 cells.
L-GAB1 cells were also analyzed in terms of their ligand-specificity in the high-affinity GABA uptake mechanism.

Rat Synaptosomes = details: literature values; read-out: Representative IC50, Rat Synaptosomes; cited from earlier work
[3] = biological target: T1, human 5HT transporter (L-S2 cells) (Homo sapiens, UniProt P31645); assay: [3H]-5-HT uptake by L-S2 cells; format: cell-based
T1 construct: expressed in transfected cells; host or cells: mouse L-M fibroblasts (ATCC CCL 1.2) transfected with total human genomic DNA and pSV2neo; clone L-S2
Description: (§1) L-S1 and L-M cells were preplated into 96-well culture plates. For uptake assays, the growth medium was removed from each well and the cells rinsed several times with oxygenated Ringer's buffer supplemented with 0.5 mM pargyline and 0.5 mM ascorbate. […] The radioligand was added to a final concentration of 0.1 μM and incubated with the cells at 37° C. for 40 minutes. The incubation mixture was then removed and each well was washed three times at room temperature with Ringer's buffer. The cells remaining in the wells were lysed with 1% sodium dodecyl sulphate (SDS) and transferred to counting vials containing 5 ml of ACS scintillant (Amersham), for liquid scintillation spectrometry. For each assay, 6-8 parallel sets of wells were assayed simultaneously.
(§2) Non-specific activity was determined from parallel assays carried out at 0° C. Initial velocities were calculated in terms of pmol/mg protein/min by subtracting velocity values obtained at 0° C. from those obtained at 37° C.
(§3) Cells were assayed in the presence of each inhibitor for 40 minutes at 37° C., washed with Ringer's buffer and prepared for counting as previously described. Five confluent wells were assayed at each inhibitor concentration. The IC50 value for each inhibitor was determined by plotting the percent activity against the logarithm of inhibitor concentration. Measured levels of uptake in the presence of inhibitors were expressed as the percentage of maximal uptake (100 %) in the absence of inhibitor.

L-M cells = assay: [3H]-5-HT uptake by untransfected L-M cells; format: cell-based, mouse
Description: as §1, with “For each assay, 6-8 parallel sets of wells were assayed simultaneously.” left out
as §2
as §3, with “Five confluent wells were assayed at each inhibitor concentration.” left out

[4] = system: human L-glutamate transporter (L-Glul cells); assay: L-[3H]glutamate uptake by L-Glul cells; format: cell-based; details: unlabelled neurotransmitters, EAA receptor ligands, co-transporter inhibitors
Description: Both L-Glul and L-M cells were assessed for their kinetic properties of [^3 H] Glu uptake, and the results were analyzed by fitting to Michaelis-Menten kinetics. This was done by incubating cells with differing concentrations of [^3 H] Glu (ranging from 0.05 to 2 μM) for 10 minutes, at both 37° C. and 0° C. The amount of [^3 H] Glu retained by the cells following incubation was then quantitated and converted (using the manufacturer's specific activity for [^3 H] Glu to the corresponding picomole-equivalent of the radioligand, for each concentration of radioligand at each temperature. Then, the pmol value is normalized by the length of incubation and the amount of protein corresponding to the number of cells assayed. The resulting value, expressed in units of pmol/min/mg protein, is the initial velocity value for each concentration of [^3 H] Glu at each temperature. The initial velocity measured at 37° C. represents total initial velocity; the initial velocity measured at 0° C. represents nonspecific initial velocity. The difference between these two velocity values is then the specific initial velocity, denoted by "V", for each concentration of [^3 H] Glu.
Various drugs specific for excitatory amino acid (EAA) receptor subtypes were assessed for their effects on [^3 H] Glu uptake by L-Glul cells.
Glu uptake by L-Glul cells.

[5] = biological target: T2, human 5HT transporter (L-S1 cells) (Homo sapiens, UniProt P31645); assay: [3H]-5-HT uptake by L-S1 cells; format: cell-based
T2 construct: expressed in transfected cells; host or cells: mouse L-M fibroblasts (ATCC CCL 1.2) transfected with total human genomic DNA and pSV2neo; clone L-S1
Description: The cells were incubated at 37° C. for an additional 40 min.
as §1, with “[…] […]” for “The radioligand was added to a final concentration of 0.1 μM and incubated with the cells at 37° C. for 40 minutes. The incubation mixture was then removed and each well was washed three times at room temperature with Ringer's buffer.”
as §2, §3

[6] = system: Cultured Astrocytes (rat); details: read-out: Representative IC50, Cultured Astrocytes (rat); literature values; cited from earlier work
Human Platelets = details: literature values; read-out: Representative IC50, Human Platelets; cited from earlier work
NCCc1c[nH]c2ccc(O)cc12 [7] = system: T3, NCCc1c[nH]c2ccc(O)cc12; assay: [3H]-5-HT uptake by L-S1 cells; format: cell-based, human; details: other: 10 min, 37° C. minus 0° C., Lineweaver-Burk
T3 construct: expressed in transfected cells; host or cells: mouse L-M fibroblasts (ATCC CCL 1.2) transfected with total human genomic DNA and pSV2neo; clone L-S1

NCCc1c[nH]c2ccc(O)cc12 [8] = system: T4, NCCc1c[nH]c2ccc(O)cc12; assay: [3H]-5-HT uptake by L-S2 cells; format: cell-based, human; details: other: 10 min, 37° C. minus 0° C., Lineweaver-Burk
T4 construct: expressed in transfected cells; host or cells: mouse L-M fibroblasts (ATCC CCL 1.2) transfected with total human genomic DNA and pSV2neo; clone L-S2

[9] = ligand 10 μM, 10 min preincubation, 0.1 μM [3H]-5HT, 40 min, 37° C. (FIG. 1)

T2 sequence (P31645 whole entry): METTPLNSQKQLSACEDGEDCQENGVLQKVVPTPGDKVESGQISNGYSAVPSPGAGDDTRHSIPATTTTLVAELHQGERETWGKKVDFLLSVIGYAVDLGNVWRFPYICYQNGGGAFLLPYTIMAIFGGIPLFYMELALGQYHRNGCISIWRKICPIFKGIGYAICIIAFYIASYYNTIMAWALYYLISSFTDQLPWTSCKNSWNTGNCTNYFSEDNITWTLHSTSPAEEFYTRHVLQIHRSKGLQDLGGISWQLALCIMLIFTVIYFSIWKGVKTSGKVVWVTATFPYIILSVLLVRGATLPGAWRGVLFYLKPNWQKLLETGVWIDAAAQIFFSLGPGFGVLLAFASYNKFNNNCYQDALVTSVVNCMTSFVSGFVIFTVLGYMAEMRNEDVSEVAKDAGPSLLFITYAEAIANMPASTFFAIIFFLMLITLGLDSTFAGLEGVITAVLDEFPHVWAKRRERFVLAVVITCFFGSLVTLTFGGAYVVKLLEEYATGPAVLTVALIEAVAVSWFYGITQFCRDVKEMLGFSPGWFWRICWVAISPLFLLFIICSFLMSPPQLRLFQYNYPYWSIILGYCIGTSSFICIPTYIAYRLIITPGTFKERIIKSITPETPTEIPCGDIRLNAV
T1 sequence (P31645 whole entry): as above

For `O=C(O)C1CCCNC1` (racemic) [NA, (±)nipecotic acid], the IC50 [1] is given as 10 to 200 µM, the “inhibition of total [3H]GABA uptake by L-GAB1 cells” value [2] is given as “less than 20%” and the “effect of GABA uptake inhibitors on [3H]GABA uptake by L-GAB1 cells” value (“effect of GABA uptake inhibitors” for short) [2] is given as “some effect”.
In the case of `O=C(O)[C@@H]1CNCC[C@@H]1O` (relative stereo) [4-cis-OHNA, 4-cis-hydroxynipecotic acid], the IC50 [1] is listed as 10 to 200 µM and the “effect of GABA uptake inhibitors” value [2] is listed as “without measurable effect”.
For `NCCc1c[nH]c2ccc(O)cc12` [5-HT, serotonin], the IC50 (Rat Synaptosomes) is given as 150 nM, the “effect of excess unlabelled 5-HT on [3H]5-HT uptake, L-S2” value ([3]; kinetic assay, Lineweaver-Burk) is given as “significantly inhibited” and the “effect of competing ligand on [3H]-5HT uptake, L-S2” value (shortened to “effect of competing ligand … L-S2”) [3, 9] is given as “significantly inhibited”. For the same compound, the “effect on 5-HT uptake activity of untransfected L-M cells” value (L-M cells) was “unaffected”, the “effect on [3H]Glu uptake by L-Glul cells” value [4] was “only unlabelled L-glutamate seems to mediate some inhibition” and the “effect of excess unlabelled 5-HT on [3H]5-HT uptake, L-S1” value ([5]; kinetic assay, Lineweaver-Burk) was “significantly inhibited”. For the same compound, the “effect of competing ligand on [3H]-5HT uptake, L-S1” value (“effect of competing ligand … L-S1” below) [5, 9] was “significantly inhibited”.
For `COc1ccc2[nH]cc(CCN)c2c1` [5-methoxytryptamine], the IC50 (Rat Synaptosomes) is given as 25000 nM, the IC50 [3] is given as 1500 nM and the IC50 [5] is given as 3.5 µM.
In the case of `CN(C)CCC=C1c2ccccc2CCc2ccccc21` [Amitriptyline, amitriptyline], the IC50 [6] is listed as 140 nM.
For `NCCC(N)C(=O)O` (stereo not shown) [DABA, 2,4-diaminobutyric acid], the IC50 [1] is given as 10 to 200 µM, the “inhibition of total [3H]GABA uptake by L-GAB1 cells” value [2] is given as “less than 20%” and the “effect of GABA uptake inhibitors” value [2] is given as “some effect”.
In the case of `CNCCCN1c2ccccc2CCc2ccccc21` [Desipramine, desipramine], the IC50 [6] is given as 620 nM.
In the case of `O=C(O)C1=CCCNC1` [Guvacine], the IC50 [1] is listed as 10 to 200 µM and the “effect of GABA uptake inhibitors” value [2] is listed as “without measurable effect”.
In the case of `COc1ccc2[nH]cc(CCNC(C)=O)c2c1` [N-Acetyl-5-methoxytryptamine, N-acetyl-5-methoxytryptamine], the IC50 (Rat Synaptosomes) is listed as 66000 nM.
For `NC[C@H](O)c1ccc(O)c(O)c1` [Norepinephrine, norepinephrine], the IC50 (Rat Synaptosomes) is listed as > 10000 nM, the “ligand-specificity of [3H]GABA uptake by L-GAB1 cells” value (from here on “ligand-specificity of [3H]GABA uptake”) [2] is listed as “not inhibited” and the “effect on [3H]Glu uptake by L-Glul cells” value [4] is listed as “only unlabelled L-glutamate seems to mediate some inhibition”.
For `NCCc1c[nH]c2ccccc12` [Tryptamine, tryptamine], the IC50 (Rat Synaptosomes) is given as 2800 nM, the IC50 [3] is given as 900 nM and the IC50 (Human Platelets) is given as 2.7 µM. For the same compound, the IC50 [5] was 0.13 µM.
In the case of `c1ccc2c3c([nH]c2c1)CNCC3` [Tryptoline], the IC50 (Rat Synaptosomes) is listed as 2500 nM, the IC50 [3] is listed as 8000 nM and the “inhibition of [3H]-5-HT uptake in words, L-S2” value [3] is listed as “relatively ineffective”. For the same compound, the IC50 (Human Platelets) was 3.8 µM, the IC50 [5] was 4 µM and the “inhibition of [3H]-5-HT uptake in words, L-S1” value [5] was “relatively ineffective”.
With `N[C@@H](Cc1ccccc1)C(=O)O` [phenylalanine] the “effect of competing ligand … L-S2” value [3, 9] was “nor the amino acid substrates for catecholamine synthesis, phenylalanine and tyrosine, inhibited uptake of 5-HT”, the “ligand-specificity of [3H]GABA uptake” value [2] was “not sensitive” and the “effect of competing ligand … L-S1” value [5, 9] was “nor the amino acid substrates for catecholamine synthesis, phenylalanine and tyrosine, inhibited uptake of 5-HT”.
For `N[C@@H](Cc1c[nH]c2ccccc12)C(=O)O` [tryptophan], the “effect of competing ligand … L-S2” value [3, 9] was “Neither tryptophan, the amino acid precursor of serotonin, nor the amino acid substrates for catecholamine synthesis, phenylalanine and tyrosine, inhibited uptake of 5-HT”, the “ligand-specificity of [3H]GABA uptake” value [2] was “not sensitive” and the “effect of competing ligand … L-S1” value [5, 9] was “Neither tryptophan, the amino acid precursor of serotonin, nor the amino acid substrates for catecholamine synthesis, phenylalanine and tyrosine, inhibited uptake of 5-HT”.
With `N[C@@H](Cc1ccc(O)cc1)C(=O)O` [tyrosine] the “effect of competing ligand … L-S2” value [3] was “nor the amino acid substrates for catecholamine synthesis, phenylalanine and tyrosine, inhibited uptake of 5-HT”, the “ligand-specificity of [3H]GABA uptake” value [2] was “not sensitive” and the “effect of competing ligand … L-S1” value [5] was “nor the amino acid substrates for catecholamine synthesis, phenylalanine and tyrosine, inhibited uptake of 5-HT”.
Compound “human 5HT transporter (L-S1 cells) (Homo sapiens)” has a Km (NCCc1c[nH]c2ccc(O)cc12 [7]) of 0.390 ± 0.096 µM and a Vmax (NCCc1c[nH]c2ccc(O)cc12 [7]) of 2.14 ± 0.55 pmol/mg/min.
For “human 5HT transporter (L-S2 cells) (Homo sapiens)”, the Km (NCCc1c[nH]c2ccc(O)cc12 [8]) was 0.234 ± 0.027 µM and the Vmax (NCCc1c[nH]c2ccc(O)cc12 [8]) was 1.33 ± 0.13 pmol/mg/min.
